Measurements taken from US6525001B1, “Substituted pyrimidine and pyridine herbicides” (Mid-American Commercialization Corporation, priority 1997, dated 2003).

Tests used:
Format in all cases: in vivo
[1] = test system: velvetleaf (Abutilon theophrasti); experiment: Test C; parameters: key: 0 was no effect; 100 was complete control; conditions: PREEMERGENCE
[2] = test system: purple nutsedge (Cyperus rotundus); experiment: Test C; parameters: key: 0 was no effect; 100 was complete control; conditions: PREEMERGENCE
[3] = test system: johnsongrass (Sorghum halepense); experiment: Test C; parameters: key: 0 was no effect; 100 was complete control; conditions: PREEMERGENCE
[4] = test system: hairy beggarticks (Bidens pilosa); experiment: Test C; parameters: key: 0 was no effect; 100 was complete control; conditions: PREEMERGENCE
[5] = test system: barnyardgrass (Echinochloa crus-galli); experiment: Test C; parameters: key: 0 was no effect; 100 was complete control; conditions: PREEMERGENCE
[6] = test system: ivyleaf morningglory (Ipomoea hederacea); experiment: Test C; conditions: PREEMERGENCE
[7] = test system: purple nutsedge (Cyperus rotundus); experiment: Test E pre-/postemergence/post directed; parameters: key: 0 is no injury; 100 is complete control
Procedure, shortened: (§1)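 Three application modes in greenhouse pots: preemergence soil spray, postemergence foliar spray at two to four leaves, and post-directed spray to soil and plant base. Ratings of 0–100 injury, assigned visually against untreated controls 13 to 21 days later.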

[8] = test system: large crabgrass (Digitaria sanguinalis); experiment: Test E pre-/postemergence/post directed; conditions: POSTEMERGENCE, Rate 250 g/ha
Procedure, shortened: as §1

[9] = test system: common groundsel (Senecio vulgaris); experiment: Test E pre-/postemergence/post directed
Procedure, shortened: as §1

[10] = test system: surinam grass (Brachiaria decumbens); experiment: Test E pre-/postemergence/post directed
Procedure, shortened: as §1

[11] = test system: sandbur (Cenchrus echinatus); experiment: Test E pre-/postemergence/post directed
Procedure, shortened: as §1

[12] = test system: Spanishneedles (Bidens bipinnata); experiment: Test E pre-/postemergence/post directed
Procedure, shortened: as §1

[13] = test system: johnson grass (Sorghum halepense); experiment: Test E pre-/postemergence/post directed
Procedure, shortened: as §1

[14] = test system: common ragweed (Ambrosia elatior); experiment: Test E pre-/postemergence/post directed
Procedure, shortened: as §1

[15] = test system: pitted morningglory (Ipomoea lacunosa); experiment: Test E pre-/postemergence/post directed
Procedure, shortened: as §1

[16] = test system: bermudagrass (Cynodon dactylon); experiment: Test E pre-/postemergence/post directed; conditions: POSTEMERGENCE, Rate 250 g/ha
Procedure, shortened: as §1

[17] = test system: itchgrass (Rottboellia exaltata); experiment: Test E pre-/postemergence/post directed
Procedure, shortened: as §1

[18] = test system: alexandergrass (Brachiaria plantaginea); experiment: Test E pre-/postemergence/post directed
Procedure, shortened: as §1

[19] = test system: cocklebur (Xanthium strumarium); experiment: Test C; parameters: key: 0 was no effect; 100 was complete control; conditions: PREEMERGENCE
[20] = test system: ladysthumb smartweed (Polygonum persicaria); experiment: Test C; conditions: PREEMERGENCE
corn (Zea mays) = experiment: Test C; conditions: PREEMERGENCE

Cc1cnc(-c2ccc(C(F)(F)F)cc2)nc1Cc1cccc(C(F)(F)F)c1 [Example 1, 5-methyl-2-[4-(trifluoromethyl)phenyl]-4-[[3-(trifluoromethyl)phenyl]methyl]pyrimidine]
10: Plant response rating, Sandbur ([11]; POSTEMERGENCE, Rate 250 g/ha) | Plant response rating, Spanishneedles ([12]; POSTEMERGENCE, Rate 250 g/ha) | Plant response rating, Alexandergrass ([18]; PREEMERGENCE, Rate 32 g/ha) | Plant response rating, Corn (corn (Zea mays); Rate 70 g/ha) | Plant response rating, Corn (corn (Zea mays); Rate 140 g/ha)
40: Plant response rating, Spanishneedles ([12]; PREEMERGENCE, Rate 32 g/ha) | Plant response rating, Johnsongrass ([13]; PREEMERGENCE, Rate 64 g/ha)
0: Plant response rating, Purple nutsedge ([2]; Rate 35 g/ha) | Plant response rating, Purple nutsedge ([2]; Rate 70 g/ha) | Plant response rating, Purple nutsedge ([2]; Rate 140 g/ha) | Plant response rating, Purple nutsedge ([7]; POSTEMERGENCE, Rate 250 g/ha) | Plant response rating, Purple nutsedge ([7]; PREEMERGENCE, Rate 32 g/ha) | Plant response rating, Purple nutsedge ([7]; PREEMERGENCE, Rate 64 g/ha) | Plant response rating, Purple nutsedge ([7]; PREEMERGENCE, Rate 125 g/ha) | Plant response rating, Cocklebur ([19]; Rate 35 g/ha) | Plant response rating, Cocklebur ([19]; Rate 70 g/ha) | Plant response rating, Cocklebur ([19]; Rate 140 g/ha)
15: Plant response rating, I. morningglory ([6]; Rate 35 g/ha) | Plant response rating, I. morningglory ([6]; Rate 70 g/ha)
98: Plant response rating, Com. groundsel ([9]; PREEMERGENCE, Rate 32 g/ha) | Plant response rating, Surinam grass ([10]; PREEMERGENCE, Rate 125 g/ha)
100: Plant response rating, Velvetleaf ([1]; Rate 140 g/ha) | Plant response rating, Johnsongrass ([3]; Rate 140 g/ha) | Plant response rating, H. beggarticks ([4]; Rate 70 g/ha) | Plant response rating, H. beggarticks ([4]; Rate 140 g/ha) | Plant response rating, Barnyardgrass ([5]; Rate 140 g/ha)
95: Plant response rating, Johnsongrass ([3]; Rate 70 g/ha) | Plant response rating, Sandbur ([11]; PREEMERGENCE, Rate 125 g/ha) | Plant response rating, Itchgrass ([17]; PREEMERGENCE, Rate 250 g/ha) | Plant response rating, Ladysthumb ([20]; Rate 140 g/ha)
80: Plant response rating, Spanishneedles ([12]; PREEMERGENCE, Rate 64 g/ha) | Plant response rating, P. morninglory ([15]; POSTEMERGENCE, Rate 250 g/ha) | Plant response rating, P. morninglory ([15]; PREEMERGENCE, Rate 64 g/ha)
35: Plant response rating, Surinam grass ([10]; PREEMERGENCE, Rate 64 g/ha)
20: Plant response rating, Velvetleaf ([1]; Rate 35 g/ha) | Plant response rating, H. beggarticks ([4]; Rate 35 g/ha) | Plant response rating, Barnyardgrass ([5]; Rate 35 g/ha) | Plant response rating, I. morningglory ([6]; Rate 140 g/ha) | Plant response rating, Sandbur ([11]; PREEMERGENCE, Rate 32 g/ha) | Plant response rating, Itchgrass ([17]; PREEMERGENCE, Rate 32 g/ha) | Plant response rating, Itchgrass ([17]; PREEMERGENCE, Rate 64 g/ha)
25: Plant response rating, Ladysthumb ([20]; Rate 35 g/ha)
50: Plant response rating, Johnsongrass ([3]; Rate 35 g/ha) | Plant response rating, Purple nutsedge ([7]; PREEMERGENCE, Rate 250 g/ha) | Plant response rating, Itchgrass ([17]; PREEMERGENCE, Rate 125 g/ha)
70: Plant response rating, Com. ragweed ([14]; POSTEMERGENCE, Rate 250 g/ha) | Plant response rating, P. morninglory ([15]; PREEMERGENCE, Rate 32 g/ha)
90: Plant response rating, Spanishneedles ([12]; PREEMERGENCE, Rate 125 g/ha) | Plant response rating, Johnsongrass ([13]; POSTEMERGENCE, Rate 250 g/ha) | Plant response rating, Johnsongrass ([13]; PREEMERGENCE, Rate 125 g/ha) | Plant response rating, Com. ragweed ([14]; PREEMERGENCE, Rate 32 g/ha) | Plant response rating, Alexandergrass ([18]; POSTEMERGENCE, Rate 250 g/ha) | Plant response rating, Alexandergrass ([18]; PREEMERGENCE, Rate 125 g/ha) | Plant response rating, Ladysthumb ([20]; Rate 70 g/ha)
65: Plant response rating, Surinam grass ([10]; PREEMERGENCE, Rate 32 g/ha) | Plant response rating, Sandbur ([11]; PREEMERGENCE, Rate 64 g/ha)
75: Plant response rating, Velvetleaf ([1]; Rate 70 g/ha) | Plant response rating, Barnyardgrass ([5]; Rate 70 g/ha) | Plant response rating, Com. groundsel ([9]; POSTEMERGENCE, Rate 250 g/ha) | Plant response rating, Alexandergrass ([18]; PREEMERGENCE, Rate 64 g/ha)
85: Plant response rating, Large crabgrass [8] | Plant response rating, Itchgrass ([17]; POSTEMERGENCE, Rate 250 g/ha)
5: Plant response rating, Johnsongrass ([13]; PREEMERGENCE, Rate 32 g/ha) | Plant response rating, Corn (corn (Zea mays); Rate 35 g/ha)
30: Plant response rating, Surinam grass ([10]; POSTEMERGENCE, Rate 250 g/ha) | Plant response rating, Bermudagrass [16]
